Measured values published in patent US20130253022A1 (FOX CHASE CHEMICAL DIVERSITY CENTER, INC., priority 2010, published 2013).

Assays:
[1] = system: hippocampal neurons; assay: Heavy metal toxicity in hippocampal cultures, neuronal viability (CFDA); conditions: test concentration of metal ions 10 μM, medium without antioxidants
From the text: All compounds were screened with dissociated hippocampal cultures derived from embryonic day 18 rats as the primary test system. With this preparation, primary neurons were used to test for prevention of heavy metal toxicity by the disclosed compounds. In brief, hippocampal tissue was obtained commercially through Brain Bits (Springfield, Ill.) and cultures prepared as previously described (Brewer, G. J. Serum-free B27/neurobasal medium supports differentiated growth of neurons from the striatum, substantia nigra, septum, cerebral cortex, cerebellum and dentate gyms, J. Neurosci. Res., 1995, 42, 674-683). The hippocampal neurons were platted at low density (10,000 cell/well) in a 96-well format and maintained in serum-free medium consisting of Neurobasal Medium supplemented with B27 and GlutaMAX (Gibco). Pre-coated poly-L-lysine coated plates are used because of the preferential adherence and survival of hippocampal neurons on this matrix support.
Heavy metal toxicity is associated with the occurrence of seizures (Mathie et al. Zinc and copper: pharmacological probes and endogenous modulators of neuronal excitability. Pharmacol. Ther. 2006, 111, 567-583). […] To establish the dose-dependency of test agents, day 18 hippocampal cultures were utilized to study the toxicity produced after treatment with the heavy metals and neuroprotection after treatment with test compounds. […] Prior to treatment, the B27/Neural Basal media of the cultures were replaced with B27 neural basal medium without antioxidants for 18 hours. […] Further, the removal of antioxidants in the medium was performed to obtain a significant and reproducible toxic signal for heavy metal treatment of the hippocampal neurons.
Toxicity produced by heavy metals is measured by decreases in neuronal viability. Carboxyfluorescein (CFDA) was used a vital stain for all cell toxicity and neuroprotection studies. With the use of the CytoFluor fluorimeter, the CFDA assay was employed to assess the viability of neurons. CFDA is a dye that becomes fluorescent upon cell entry and cleavage by cytosolic esterases (Petroski and Geller. Selective labeling of embryonic neurons cultures on astrocyte monolayers with 5(6)-carboxyfluorescein diacetate [CFDA]. J. Neurosci. Methods 1994, 52, 23-32). Neuronal specificity is obtained relative to astrocytes because the cleaved dye is extruded extracellularlly by glia with time, while dye in neurons remains intracellular.

[2] = system: Hippocampal Cultures; assay: Neuroprotection from hydrogen peroxide (oxidative stress), CFDA assay; type: cell-based; conditions: Rattus norvegicus, read-out: NP from Hydrogen Peroxide CFDA EC50
From the text: (§1) Cell cultures: All compounds are screened with dissociated hippocampal cultures derived from embryonic day 18 rats as the primary test system. With this preparation, primary neurons are used to test for toxicity as well as neuroprotection in a highly relevant experimental system to epilepsy. In brief, hippocampal tissue are obtained commercially through Brain Bits (Springfield, Ill.) and cultures prepared as previously described by Brewer (Brewer, G. J. Serum-free B27/neurobasal medium supports differentiated growth of neurons from the striatum, substantia nigra, septum, cerebral cortex, cerebellum and dentate gyms, J. Neurosci. Res. 1995, 42, 674-683). The hippocampal neurons are platted at low density (10,000 cell/well) in a 96-well format and maintained in serum-free medium consisting of Neurobasal Medium supplemented with B27 and GlutaMAX (Gibco). Pre-coated poly-L-lysine coated plates are used because of the preferential adherence and survival of hippocampal neurons on this matrix support.
(§2) Potent neuroprotection is the distinguishing characteristic that separates this program's anticonvulsants from all other commercial drugs for epilepsy. The experimental details and the rationale for the implemented assays are essential in differentiating these compounds from that of others. The central objective of all neuroprotective assays was their relevancy to excitotoxicity and oxidative stress related to epilepsy. Both the amount of glutamate and hydrogen peroxide used in the assays, as well as the time of treatment and duration of the experiment, were designed to be relevant to epilepsy. Further, all time parameters employed in these studies were empirically determined to be within the limits of reversible toxic events, yet using amounts of glutamate and hydrogen peroxide that were relevant to the disease. In regard to glutamate toxicity, a critical feature was the duration of treatment of the hippocampal neurons. The rational for using a short 5 min treatment with glutamate was based on the observation of Randall and Thayer (Randall, R. D.; Thayer, S. A. Glutamate-induced calcium transient triggers calcium overload and neurotoxicity in rat hippocampal neurons, J. Neurosci. 1992, 12, 1882-1895). […] The rationale is that this intense burst of glutamate and resulting calcium overload is relevant to seizures and therefore was important data to capture in the screening assay. The amount of glutamate (30 μM) employed in our screening was based on the basal levels of glutamate observed in microdialysis measurements of hippocampus from epileptogenic patients (Cavus et al. Decreased hippocampal volume on MRI is associated with increased extracellular glutamate in epilepsy patients, Epilepsia, 2008, 49, 1358-1366). In regard to hydrogen peroxide, the amount employed (10 μM) was detected in the hippocampus of rats after kainate-induced status epilepticus (Jarrett et. al., Mitochondrial DNA damage and impaired base excision repair during epileptogenesis, Neurobiol. Dis. 2008, 30, 130-138). To produce neural damage and death with these amounts of glutamate and hydrogen peroxide, the cultures were changed to a medium with significant depletion of antioxidant components in the defined medium supplement B-27 just prior to treatment with the compounds. This was performed to obtain a significant and reproducible toxic signal in the hippocampal neurons and because loss of antioxidant control may be a component of epileptogenesis (Waldbaum and Patel, Mitochondria, oxidative stress and temporal lobe epilepsy, Epilepsy Res. 2010 88, 23-45; Wu et al., Mitochondrial DNA mutation-elicited oxidative stress, oxidative damage, and altered gene expression in cultured cells of patients with MERRF syndrome, Mol. Neurobiol. 2010, 41, 256-266). Neuroprotection studies with hydrogen peroxide were conducted with cultures that were between day 12 and day 18. Studies of neuroprotection glutamate were conducted between day 19 and day 22. […]

[3] = system: Hippocampal Cultures; assay: Neuroprotection from glutamate excitotoxicity, propidium iodide (cell death) assay; type: cell-based; conditions: Rattus norvegicus, read-out: NP from Glutamate PI EC50
From the text: as §1, §2

[4] = system: Hippocampal Cultures; assay: Neuroprotection from hydrogen peroxide (oxidative stress), propidium iodide assay; type: cell-based; conditions: Rattus norvegicus, read-out: NP from Hydrogen Peroxide PI EC50
From the text: as §1, §2

[5] = system: Hippocampal Cultures; assay: Neuroprotection from glutamate excitotoxicity, CFDA (neuronal viability) assay; type: cell-based; conditions: Rattus norvegicus, read-out: NP from Glutamate CFDA EC50
From the text: as §1
as §2, with “compounds.” for “compounds. This was performed to obtain a significant and reproducible toxic signal in the hippocampal neurons and because loss of antioxidant control may be a component of epileptogenesis (Waldbaum and Patel, Mitochondria, oxidative stress and temporal lobe epilepsy, Epilepsy Res. 2010 88, 23-45; Wu et al., Mitochondrial DNA mutation-elicited oxidative stress, oxidative damage, and altered gene expression in cultured cells of patients with MERRF syndrome, Mol. Neurobiol. 2010, 41, 256-266). Neuroprotection studies with hydrogen peroxide were conducted with cultures that were between day 12 and day 18. Studies of neuroprotection glutamate were conducted between day 19 and day 22.”

[6] = system: 6-Hz psychomotor seizure; assay: 6 Hz psychomotor seizure test, mouse; type: in vivo, mice; conditions: ip
Method: Methods to measure anticonvulsant activity: All tests were conducted by the Anticonvulsant Screening Program (ASP) of the National Institute of Neurological Disease and Stroke at the National Institutes of Health. The 6 Hz Seizure Test: Compounds were further tested in the 6-Hz psychomotor seizure model. (Barton et al. Pharmacological characterization of the 6 Hz psychomotor seizure model of partial epilepsy. Epilepsy Res. 2001, 47, 217-227). This model is used to detect […] that may be useful for the treatment of therapy-resistant partial seizures. For this test, an alternative electrical stimulation paradigm is used with a low frequency (6 Hz), long duration (3 seconds) corneal stimulation. The seizure evoked by this low frequency stimulation is characterized by immobility, forelimb clonus, Straub tail and facial automatisms. Mice are tested from 15 min to 4 hours following an intraperitoneal dose of 100 mg/kg. Abolition of the clonic seizures indicates the ability of a compound to prevent partial or psychomotor seizures.

[7] = system: pentylenetetrazol-induced clonic seizures; assay: Subcutaneous pentylenetetrazol seizure test (scPTZ), mouse; type: in vivo, Carworth Farms No. 1 mice; conditions: pentylenetetrazol 85 mg/kg s.c., test compound intraperitoneally, read-out: Mouse PTZ ED50, s.c.
Method: Methods to measure anticonvulsant activity: All tests were conducted by the Anticonvulsant Screening Program (ASP) of the National Institute of Neurological Disease and Stroke at the National Institutes of Health. The subcutaneous pentylenetetrazol (metrazol) seizure test (scPTZ). This model primarily identifies compounds that raise seizure threshold. The behavioral seizure produced is not typical of absence epilepsy but clonic in nature. With some minor exceptions, the pharmacological profile of the scPTZ seizure model is consistent with the human condition. The scPTZ test utilizes a dose of pentylenetetrazol (85 mg/kg in Carworth Farms No. 1 mice and 70 mg/kg in Sprague-Dawley rats). This produces clonic seizures lasting for a period of at least five seconds in 97 percent of animals tested. At the anticipated time of testing the convulsant is administered subcutaneously. The test compound is administered intraperitoneally in mice and orally in rats. Animals are observed over a 30 minute period. Absence of clonic spasms in the observed time period indicates a compound's ability to abolish the effect of pentylenetetrazol on seizure threshold (Swinyard E A. Laboratory evaluation of antiepileptic drugs: review of laboratory methods. Epilepsia, 1969, 10, 107-119).

[8] = system: MES-induced seizure spread; assay: Maximal electroshock seizure (MES) test, rat; type: in vivo, rats; conditions: po
Method: (§3) Seizure-related assays, Maximal electroshock test: The most definitive assay for anti-seizure activity is the maximal electroshock (MES) test (Swinyard, E. A. Laboratory evaluation of antiepileptic drugs: review of laboratory methods, Epilepsia, 1969, 10, 107-119). […] With both rodent assays, the duration of action is of high importance as well as the potency of the response.
(§4) Methods to measure anticonvulsant activity: All tests were conducted by the Anticonvulsant Screening Program (ASP) of the National Institute of Neurological Disease and Stroke at the National Institutes of Health.
(§5) The Maximal Electroshock Seizure (MES) or Maximal Seizure Pattern Test: The MES is a model for generalized tonic-clonic seizures (Putnam and Merritt. Experimental determination of the anticonvulsant properties of some phenyl derivatives. Science 1937, 85, 113-118). It is highly reproducible with consistent endpoints. The behavioral and electrographic seizures generated in this model are consistent with the human disorder. This model identifies those compounds which prevent seizure spread.
(§6) In the MES test, an electrical stimulus of 0.2 s in duration (50 mA in mice and 150 mA in rat at 60 Hz) is delivered via corneal electrodes primed with an electrolyte solution containing an anesthetic agent. Mice are tested at 30 minutes and 4 hours following doses of 30, 100 and 300 mg/kg of test compound. Test compounds are administered intraperitoneally to the mice. Rats are tested at time intervals between 0.25 and 4 hours following a standard oral dose of 30 mg/kg. Abolition of the hindlimb tonic extensor component indicates the test compound's ability to inhibit MES-induced seizure spread.

[9] = system: MES-induced seizure spread; assay: Maximal electroshock seizure (MES) test, mouse; type: in vivo, mice
Method: as §3, §4, §5, §6

[10] = 10 μM hydrogen peroxide, hippocampal cultures, 4 hour test period
[11] = 30 μM glutamate 5 min, hippocampal cultures, 4 hour test period

Row | SMILES | Loss of neuronal viability from metal [1] [%] | EC50 ([2]; 4 h) [nM] | EC50 [3] [nM] | EC50 ([4]; 4 h) [nM] | further results
1 | O.O.O.O.O.O.[Cl-].[Cl-].[Co+2] [Cobalt Chloride hexahydrate] | 36 |  |  |  | 
2 | CC(=O)[O-].CC(=O)[O-].O.[Cu+2] [Copper Acetate monohydrate] | 47 |  |  |  | 
3 | NS(=O)(=O)NCC(F)c1ccccc1F (stereo not drawn) [Example 3, 2-Fluoro-2-(2-fluoro-phenyl)-ethylsulfamide] |  | 0.01 | 0.1 | 0.01 | EC50 [5]: 3 nM
4 | COc1ccccc1C(F)(F)CNS(N)(=O)=O [Example 4, 2,2-Difluoro-2-(2-methoxyphenyl)-ethyl-1-sulfamide] |  | 0.1 | 1 | 1 | 
5 | NS(=O)(=O)NCC(F)(F)c1ccccc1 [Example 5, 2,2-difluoro-2-phenyl-ethyl-1-sulfamide] |  |  |  |  | ED50 [6]: 16 mg/kg; ED50 [7]: 41 mg/kg; EC50 [2, 10]: 0.1 nM; EC50 [3, 11]: 0.1 nM; EC50 [4, 10]: 0.03 nM; EC50 [5, 11]: 0.1 nM; ED50 [8]: 26 mg/kg; Duration of action MES ([9]; Mouse Maximal Electroshock (MES) test at 100 mg/kg, i.p.): 4 h; ED50 ([9]; ip, mouse): 49 mg/kg
6 | NS(=O)(=O)NCC(F)(F)c1csc2ccccc12 [Example 6, 2-Benzo[b]thiophen-3-yl-2,2-difluoro-ethyl sulfamide] |  | 0.1 | 0.1 | 1 | EC50 [5]: 0.1 nM
7 | O.O.O.O.O.O.O=S(=O)([O-])[O-].[Fe+2] [Iron sulfate hexahydrate] | 31 |  |  |  | 
8 | O.O.O.O.O.O.[Cl][Ni][Cl] [Nickel Chloride hexahydrate] | 33 |  |  |  | 
